“Also recorded” adds a separate entry of the source. Non-standard residues stand in square brackets, D forms with d. No end group written: not given here. *: point of attachment. X1 = CC[N+]1=C(/C=C/C=C/C=C2N(CCCCCC(=O)NCCN3C(=O)CC(*)C3=O)c3ccc(S(=O)(=O)O)cc3C2(C)C)C(C)(C)c2cc(S(=O)(=O)[O-])ccc21

One series deals with human colonic mucus. Put plainly: Fluorescent labelling of human colonic mucus layer. The format is binding. The conditions noted are these: 1 μg/mL. The protocol: Colon explant surgical collection. In summary, human colon segments (ascending, descending, and sigmoid colon) were obtained from fully informed patients undergoing surgery for colon carcinoma and were analyzed anonymously. Patient written consent was obtained, according to the French bioethics law. None of the patients had undergone radiotherapy or chemotherapy. According to the pathologist's examination rules for the longitudinally bisected colon, a healthy segment of tissue, which was distant from the tumor region and devoid of metastatic cells, was removed. Tissues were processed according to the French Government guidelines for research on human tissues and the French Bioethics Act with the authorization no RBM 2009-50.
Fixation and staining procedures. For microscopy studies, purified or cultured cells and polymerized lactoferrin were resuspended onto 24-well plates containing 12 mm coverslips in RMPI 1640+10 mM Hepes (when cultured in the autologous plasma) and centrifuged at 300×g for 10 min. Culture media were removed and cells were fixed in 4% Paraformaldehyde (PFA) for two hours. Fixed cells were washed three times in PBS+0.1% saponin (Sigma-Aldrich), prior immunolabeling with primary antibodies in the same buffer for 1 hour (Triton 0.1% can alternatively be used for cell permeabilization). After three additional washes in PBS+0.1% saponin, secondary antibodies and fluorescent markers were incubated for one hour. […]
Antibodies, fluorescent markers. For immunofluorescence assay, lactoferrin was detected with a mouse anti-lactoferrin primary monoclonal antibody (Hycult biotech, clone 265-1K1, 1:50 dilution) and an anti-mouse-FITC conjugated secondary antibody (1:1000). Nuclei were detected with DAPI (Life Technologies), Lyophilized MUB40 peptides (MUB40#1 (SEQ ID NO: 3)-Cy5, MUB40#2 (SEQ ID NO: 4)-Cy5, MUB40#3 (SEQ ID NO: 5)-Cy5, MUB40#4 (SEQ ID NO: 6)-Cy5, MUB40#1 (SEQ ID NO: 3)-Dylight, RI-MUB40 (SEQ ID NO: 2)-Cy5, and RI-MUB40 (SEQ ID NO: 2)-Biotin) were solubilized in a phosphate buffer pH8 at a 1 mg/mL concentration and used at a 1:1000 dilution. […]

In series [1] the test system is human neutrophil granules. The series can be described thus: Fluorescent labelling of fixed purified human neutrophils. The format is cell-based. The conditions noted are these: 1 μg/mL. The protocol:
Fixation and staining procedures. For microscopy studies, purified or cultured cells and polymerized lactoferrin were resuspended onto 24-well plates containing 12 mm coverslips in RMPI 1640+10 mM Hepes (when cultured in the autologous plasma) and centrifuged at 300×g for 10 min. Culture media were removed and cells were fixed in 4% Paraformaldehyde (PFA) for two hours. Fixed cells were washed three times in PBS+0.1% saponin (Sigma-Aldrich), prior immunolabeling with primary antibodies in the same buffer for 1 hour (Triton 0.1% can alternatively be used for cell permeabilization). After three additional washes in PBS+0.1% saponin, secondary antibodies and fluorescent markers were incubated for one hour. Coverslips were washed three time in PBS+0.1% saponin, three times in PBS, and three times in deionized H2O and mounted with prolong gold^tm mounting media.
Antibodies, fluorescent markers. For immunofluorescence assay, lactoferrin was detected with a mouse anti-lactoferrin primary monoclonal antibody (Hycult biotech, clone 265-1K1, 1:50 dilution) and an anti-mouse-FITC conjugated secondary antibody (1:1000). Nuclei were detected with DAPI (Life Technologies), Lyophilized MUB40 peptides (MUB40#1 (SEQ ID NO: 3)-Cy5, MUB40#2 (SEQ ID NO: 4)-Cy5, MUB40#3 (SEQ ID NO: 5)-Cy5, MUB40#4 (SEQ ID NO: 6)-Cy5, MUB40#1 (SEQ ID NO: 3)-Dylight, RI-MUB40 (SEQ ID NO: 2)-Cy5, and RI-MUB40 (SEQ ID NO: 2)-Biotin) were solubilized in a phosphate buffer pH8 at a 1 mg/mL concentration and used at a 1:1000 dilution. For PBMC staining CD19-APC (B lymphocytes), CD3-APC (T lymphocytes), and CD14-PercP (monocytes, macrophages) (BD Bioscience) were used at a 1:1000 dilution together with Dapi (1:1000) and MUB40-Cy5 (1 mg/mL). Actin was stained with Phalloidin-Rhodamine red X (RRX) (Jackson Immunoresearch Antibodies) used at a 1:1000 final dilution.
Polymorphonuclear neutrophils purification. Human polymorphonuclear neutrophils were purified as described previously (Monceaux et al. 2016). Briefly, plasma was removed by centrifugation (450×g, 15 min); blood cells were resuspended in 0.9% NaCl solution supplemented with 0.72% Dextran. After red blood cells sedimentation, white blood cells were pelleted and further separated on a two layer Percoll (GE Healthcare) (51%−42%) by centrifugation (at 240×g, 20 min). PBMC (top layer) were isolated from polymorphonuclear neutrophils (bottom layer). Red blood cells were removed from the latter fraction using CD235a (glycophorin) microbeads (negative selection) (Miltenyi Biotec). PBMCs and polymorphonuclear neutrophils were resuspended in the autologous plasma. Guinea pig and mouse polymorphonuclear neutrophils were purified with the same procedure.
Confocal microscopy. […]

Series [2] concerns inflammatory sites, localized in joints. Put plainly: Mouse arthritis model (K/B×N serum transfer), in vivo epifluorescence imaging. On the procedure:
Mouse arthritis model. 6-7 weeks old female C57BL/6J mice were purchased from Charles River France, housed under specific pathogen-free (SPF) conditions and handled in accordance with French and European directives. Mouse protocols were approved by the Animal Ethics committee CETEA number 89 (Institut Pasteur, Paris, France) and registered under #2013-0103, and by the French Ministry of Research under agreement #00513.02. Arthritis was induced by i.v. injection of 120 μL K/B×N serum and arthritis scored as described previously (Bruhns et al. 2003). Mice injected with physiological saline were used as controls. On day 6 after serum transfer, mice were anesthetized, shaved, depilated and injected i.p. with luminol (10 mg/mouse) and i.v. with 5 μg/mouse MUB-40 Cy5. Epifluorescence, bioluminescence and CT images were acquired 10-90 min after injection using an IVIS SpectrumCT (Perkin Elmer).

The target of a further series is trypsin (Sus scrofa, UniProt P00761). To be noted: trypsin digestion, 37°C, pH8, followed up to 24 h. The protocol: Trypsin proteolysis. MUB40 (SEQ ID NO: 3)-Cy5 and RI-MUB40 (SEQ ID NO: 2)-Cy5 were dissolved in 50 mM ammonium bicarbonate, pH 8. Prior to digestion and owing to the propensity of maleimide derivatives to undergo ring-opening in a basic environment (Fontaine et al., 2015), we incubated both peptides at 37° C. overnight. Ring-opening completion was checked before trypsin addition. […] Lyophilized trypsin (Thermo scientific) was reconstituted using 50 mM acetic acid, diluted with 50 mM ammonium bicarbonate and added to the peptide solution so as to obtain a final peptide concentration of 0.25 mg/mL and a protease to protein ratio of 1:20 (w/w). Samples were directly incubated on the injection sampler thermostated at 37° c. HPLC and LC-MS analyses were performed as previously described above, applying a 15% to 40% linear gradient of acetonitrile in 10 mM ammonium acetate over 20 minutes.
Hydrolysis experiments were done in solution at 37° c., pH8 and monitored by HPLC by measuring the peak area of the remaining intact peptides.

The test system of series [3] is mucus produced by human cell lines (L174T). Put plainly: Binding to mucus produced by human cell lines. The series is classed as cell-based.
The subject of another series is living human neutrophils. The series can be described thus: Live microscopy of neutrophils infected with Shigella flexneri. The format is cell-based. The protocol: Neutrophil infection. Human purified neutrophils were cultured in glass-bottom dishes (Mattek) for live fluorescent microscopy in a RMPI 1640 (Life Technologies) culture medium supplemented with 10% of heat inactivated Human Serum (Sigma-Aldrich). Neutrophils (5.10^5 cell/mL in 2 mL) were infected with exponentially-grown Shigella flexneri 5a pGFP at a Multiplicity Of Infection (MOI) 20 in RMPI 1640 (Life Technologies) culture medium supplemented with 10 mM Hepes (Life Technologies) at 37° C. Infected neutrophils were centrifuged at 2000 rpm for 10 min prior imaging.
Live epifluorescence microscopy. Viable neutrophils infected with S. flexneri pGFP were imaged on a Definite focus live microscope (Zeiss) equipped with a temperature control chamber (37° C.) and a 63× oil immersion objective. Images were acquired every 60 s. Z-stack images were taken with […] step-size increments. Obtained Z-stack images were processed with Fiji software to generate a Movie and the corresponding extracted images are shown in FIG. 16a.

Series [4] has as its system hind and front inflamed ankles. Put plainly: K/B×N mice, ankle fluorescence imaging after intravenous injection. The conditions noted are these: 2 days post i.v. injection of 0.9 nmoles; p<0.01 vs MUB40-Cy5, p<0.001 vs Cy5 only. The series is classed as in vivo, mouse. The source says: (A) Ankles of K×B/N mice were imaged 2 Days after intravenous injection of 0.9 nmoles of RI-MUB40-Cy5 (SEQ ID NO: 2), MUB40-Cy5 (SEQ ID NO: 3) or Cy5 only. Fluorescence was quantified at the level of front or hind ankles (in ROI, as indicated).
(B) Quantification of the fluorescent signal associated with RI-MUB40 (SEQ ID NO: 2)-Cy5, MUB40 (SEQ ID NO: 3)-Cy5 or Cy5 accumulation at hind and front ankles (top) or hind ankles only (bottom). Results are average from at least three animals. ** indicates p<0.01 and *** indicates p<0.001 (Student's T-test).

Series [5] deals with neutrophils recruited to guinea pig colonic mucosa infected with Shigella flexneri. The series can be described thus: Guinea pig model of shigellosis, staining of fixed colon sections. To be noted: guinea pig colon, Shigella flexneri, 1 μg/ml. The protocol: Guinea pig. The experimental protocol was approved by the french Ethic Committee Paris (n° 20140069, 2014). Young guinea pigs (Hartley, <150 g, Charles River) were anaesthetized and infected intrarectally with 10^9 CFU exponentially grown Shigella flexneri 5a (M90T) pGFP as previously described (Shim et al. 2007) (Monceaux et al. 2016). Infection occurred during 8 hours before animals were sacrificed and infected colons collected and fixed in 4% Paraformaldehyde (PFA) for two hours. For immunohistochemical staining, infected guinea pig colon samples were washed in PBS and incubated at 4° C. in PBS containing 16% sucrose for 4 hours, followed by incubation in PBS with 30% sucrose overnight. Samples were frozen in OCT (VWR 361603E) on dry ice. Frozen blocks were stored at −80 until sectioning. 10 to 30 μm sections were obtained using a cryostat CM-3050S (Leica). Tissue slices were labeled in PBS+0.1% saponin (Sigma-Aldrich) with MUB40-Cy5 or MUB40-Dylight (1 μg/ml) to localize recruited neutrophils. Slides were washed three time in PBS+0.1% saponin, three times in PBS, and three times in deionized H2O and mounted with prolong gold^tm mounting media.

The test system of series [6] is neutrophils recruited to rabbit ileum infected with Shigella flexneri. The series can be described thus: Rabbit ligated loop model of shigellosis, staining of fixed ileum sections. To be noted: 1 μg/mL. The protocol:
Rabbit. The experimental protocol was approved by the french Ethic Committee Paris 1 (number 20070004, December 9th 2007). New Zealand White rabbits weighting 2.5-3 kg (Charles River) were used for experimental infections. For each animal, up to 12 intestinal ligated loops, each 5 cm in length, were prepared as described previously (Jones et al. 2007; Martinez et al. 1988; West et al. 2005) and infected with 10^5 CFU S. flexneri pGFP per loop. After 16 h, animals were sacrificed and collected tissue were fixed in 4% Paraformaldehyde (PFA) for two hours. For immunohistochemical staining, infected rabbit ileum samples were washed in PBS, incubated at 4° C. PBS containing 12% sucrose for 90 min, then in PBS with 18% sucrose overnight, and frozen in OCT (Sakura) on dry ice. 7 μm sections were obtained using a cryostat CM-3050 (Leica). Fluorescent staining was performed in PBS+0.1% saponin using Phalloidin-RRX (1:1000 dilution) to stain Actin, MUB40-Cy5 (1 μg/mL) and a mouse anti-lactoferrin primary monoclonal antibody (Hycult biotech, clone 265-1K1, 1:50 dilution) and an anti-mouse-FITC conjugated secondary antibody (1:1000) to stain infiltrated neutrophils. Slides were washed three time in PBS+0.1% saponin, three times in PBS, and three times in deionized H2O and mounted with prolong gold^tm mounting media.

Chain of trypsin (P00761 9-231): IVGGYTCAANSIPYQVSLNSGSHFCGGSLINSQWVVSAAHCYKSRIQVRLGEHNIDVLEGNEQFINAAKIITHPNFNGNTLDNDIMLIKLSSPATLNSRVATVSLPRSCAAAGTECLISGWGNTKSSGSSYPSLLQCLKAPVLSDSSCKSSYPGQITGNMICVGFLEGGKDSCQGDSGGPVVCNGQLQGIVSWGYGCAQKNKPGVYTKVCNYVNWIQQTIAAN

On to “Ac-[dC](X1)[dF][dI][dV][dT][dY][dF][dQ][dD][dN][dT][dD][dD][dN][dD][dF][dK][dE]G[dA][dP][dF][dN][dD][dK][dF][dL][dE][dY]G[dD]G[dE][dF][dK][dK][dI]G[dE][dA][dT]-NH2 [Cy5-RI-MUB40]”, for which the “labelling of / binding to human colonic mucus” value in the series with human colonic mucus is given as “validated”. In series [1], the “labelling of human neutrophil granules” value is given as “validated”. Also, in [2] (hind ankle joints, p≤0.0001), the “relation of epifluorescent signal to luminol bioluminescent signal” value is on record as “correlated”. For the same substance, the “accumulation of fluorescent signal at inflammatory sites” value in [2] (i.v. injection, arthritic mice but not naïve controls, day 6) is “a fluorescent signal accumulated at inflammatory sites”. Moreover, in series [2] (p≤0.0001, T-test), the “epifluorescent signal, arthritic mice vs controls” value is “significantly higher in arthritic mice compared to controls”. In the series with trypsin, the “degradation by trypsin (in words)” value is given as “no degradation”. Moreover, the “binding to mucus produced by human cell lines (L174T)” value in series [3] is reported as “validated”. For the same substance, in the series on living human neutrophils (Shigella flexneri MOI 20, 1 μg/mL, 37°C), the “detection of lactoferrin degranulation on living neutrophils” value is listed as “transient, dot-shaped fluorescent signals were detected on the cells' surface”. The “crossing of plasma membrane of living cells” value with living human neutrophils (live cells, listed as RI-MUB40-Cy5) is listed as “did not cross the plasma membrane of living cells; also recorded: does not cross plasma membrane of live cells”. Also, the “fluorescent signal accumulation at hind and front inflamed ankles” value in [4] was “significantly higher compared to MUB40-Cy5”.

As to “MUB40-Dylight405: MUB40#1 (SEQ ID NO: 3) labeled with Dylight 405 (CTAEGIKKFEGDGYELFKDNFPAGEKFDNDDTNDQFYTVIF; also: Dylight 405 label (site not given here))”, the “labelling of recruited neutrophils” value in [5] and in series [6] was “specifically labeled” throughout. Moreover, the “labelling of human neutrophil granules” value in series [1] is “specifically labeled”.

The values above are taken from US11472844B2, “Peptidomimetics, method of synthesis and uses thereof” (priority 2017, dated 2022).
